From US10787450B2 (BRISTOL-MYERS SQUIBB COMPANY, priority 2016, dated 2020) come the findings set out here.

Usually IC50 stands for the concentration needed to halve the response being measured. The low end stands for greater potency, the high end for weaker potency.

Counter-ions that a name gives are not always drawn.

Chain of ROCK2 (O75116 whole entry, species assumed): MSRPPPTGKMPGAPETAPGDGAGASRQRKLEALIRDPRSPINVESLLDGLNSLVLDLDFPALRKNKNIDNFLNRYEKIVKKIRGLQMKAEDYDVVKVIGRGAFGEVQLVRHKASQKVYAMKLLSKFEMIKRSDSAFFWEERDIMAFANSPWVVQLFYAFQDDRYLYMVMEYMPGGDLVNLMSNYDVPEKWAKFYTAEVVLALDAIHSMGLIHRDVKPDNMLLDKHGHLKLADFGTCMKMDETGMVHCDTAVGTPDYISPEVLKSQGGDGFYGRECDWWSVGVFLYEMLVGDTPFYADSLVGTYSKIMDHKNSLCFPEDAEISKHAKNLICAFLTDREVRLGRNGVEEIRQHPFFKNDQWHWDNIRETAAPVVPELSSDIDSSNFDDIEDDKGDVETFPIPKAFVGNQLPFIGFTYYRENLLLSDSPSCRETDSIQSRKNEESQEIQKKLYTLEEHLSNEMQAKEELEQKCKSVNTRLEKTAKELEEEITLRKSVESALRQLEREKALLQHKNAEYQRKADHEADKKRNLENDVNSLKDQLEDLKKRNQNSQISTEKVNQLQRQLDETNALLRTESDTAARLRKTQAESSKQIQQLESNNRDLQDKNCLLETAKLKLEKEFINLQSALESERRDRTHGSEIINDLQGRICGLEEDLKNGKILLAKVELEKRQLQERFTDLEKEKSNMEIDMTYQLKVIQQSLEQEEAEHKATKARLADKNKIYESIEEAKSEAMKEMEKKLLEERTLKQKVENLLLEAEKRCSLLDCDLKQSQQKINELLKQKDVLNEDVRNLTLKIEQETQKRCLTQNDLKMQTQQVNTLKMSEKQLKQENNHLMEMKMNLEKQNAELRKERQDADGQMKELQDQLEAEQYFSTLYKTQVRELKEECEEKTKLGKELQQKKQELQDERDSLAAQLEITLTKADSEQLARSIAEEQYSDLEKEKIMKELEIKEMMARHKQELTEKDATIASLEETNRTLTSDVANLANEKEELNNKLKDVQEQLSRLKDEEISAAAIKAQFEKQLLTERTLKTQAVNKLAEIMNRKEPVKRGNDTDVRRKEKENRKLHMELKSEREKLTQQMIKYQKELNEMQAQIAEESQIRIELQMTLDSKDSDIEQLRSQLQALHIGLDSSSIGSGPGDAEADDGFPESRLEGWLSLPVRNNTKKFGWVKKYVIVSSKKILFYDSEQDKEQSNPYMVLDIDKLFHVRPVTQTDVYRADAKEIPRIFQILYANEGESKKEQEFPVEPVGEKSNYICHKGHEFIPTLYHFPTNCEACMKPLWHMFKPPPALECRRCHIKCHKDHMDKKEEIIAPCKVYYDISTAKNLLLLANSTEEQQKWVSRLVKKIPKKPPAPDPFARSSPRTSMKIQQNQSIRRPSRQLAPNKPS

This assay has as its target ROCK2 (Homo sapiens (Human), UniProt O75116). The assay is described as follows: ROCK2 kinase inhibition assay (FITC peptide substrate, LABCHIP 3000 Reader). Format: biochemical. The note with it: 5 μM ATP, 1.5 μM peptide substrate. The method, then: The effectiveness of compounds of the present invention as ROCK inhibitors can be determined in a 30 μL assay containing 20 mM HEPES, pH 7.5, 20 mM MgCl2, 0.015% Brij-35, 4 mM DTT, 5 μM ATP and 1.5 μM peptide substrate (FITC-AHA-AKRRRLSSLRA-OH) (SEQ ID NO. 1). Compounds were dissolved in DMSO so that the final concentration of DMSO was <2%, and the reaction was initiated with Rho kinase variants. After incubation, the reaction was terminated by the addition of EDTA and the phosphorylated and non-phosphorylated peptides separated using a LABCHIP® 3000 Reader (Caliper Life Sciences). […] Compounds were tested in dose-response format, and the inhibition of kinase activity was calculated at each concentration of compound. The inhibition data were fit using a curve-fitting program to determine the IC50; i.e., the concentration of compound required to inhibit 50% of kinase activity.
Representative examples were tested in the ROCK2 assay described above and found having ROCK2 inhibitory activity.
On to `O=C1N(c2ccc(-c3cn[nH]c3)cc2)CC2(CCNCC2)N1Cc1cccc(O)c1` [Example 62, 3-(4-(1H-pyrazol-4-yl)phenyl)-1-(3-hydroxybenzyl)-1,3,8-triazaspiro[4.5]decan-2-one], for which the IC50 was less than 3 nM. Consider `O=C1N(c2ccc(-c3cn[nH]c3)cc2)CC2(CCNCC2)N1Cc1ccccc1F` [Example 63, 3-(4-(1H-pyrazol-4-yl)phenyl)-1-(2-fluorobenzyl)-1,3,8-triazaspiro[4.5]decan-2-one], for which the 50% inhibitory concentration (IC50) was in the range of 3 to 30 nM. `O=C1N(c2ccc(-c3cn[nH]c3)cc2)CC2(CCNCC2)N1Cc1cccc(F)c1F` [Example 64]: the IC50 lay within 3 to 30 nM.

As to `O=C1N(c2ccc(-c3cn[nH]c3)cc2)CC2(CCNCC2)N1CC1CCCCC1` [Example 67], the IC50 was 3 to 30 nM.

In turn, `O=C1N(c2ccc(-c3cn[nH]c3)cc2)CC2(CCNCC2)N1Cc1cc(F)cc(F)c1` [Example 68] displayed a half-inhibitory concentration (IC50) of 3 to 30 nM. The result for `O=C1N(c2ccc(-c3cn[nH]c3)cc2)CC2(CCNCC2)N1CC1CCOCC1` [Example 72, 3-(4-(1H-pyrazol-4-yl)phenyl)-1-((tetrahydro-2H-pyran-4-yl)methyl)-1,3,8-triazaspiro[4.5] decan-2-one] reads 250 to 3000 nM; that for `COc1cccc(CN2C(=O)N(c3ccc(-c4cn[nH]c4)cn3)CC23CCNCC3)c1` [Example 73, 3-(5-(1H-pyrazol-4-yl)pyridin-2-yl)-1-(3-methoxybenzyl)-1,3,8-triazaspiro[4.5]decan-2-one], 3 to 30 nM; that for `COc1cccc(CN2C(=O)N(c3ccc(-c4cn[nH]c4)c(C)n3)CC23CCNCC3)c1` [Example 74, 1-(3-methoxybenzyl)-3-(6-methyl-5-(1H-pyrazol-4-yl)pyridin-2-yl)-1,3,8-triazaspiro[4.5]decan-2-one], 3 to 30 nM. As to `CCc1nc(N2CC3(CCNCC3)N(Cc3cccc(OC)c3)C2=O)ccc1-c1cn[nH]c1` [Example 75, 3-(6-ethyl-5-(1H-pyrazol-4-yl)pyridin-2-yl)-1-(3-methoxybenzyl)-1,3,8-triazaspiro[4.5]decan-2-one, TFA], the IC50 is less than 3 nM. Under `COc1cccc(CN2C(=O)N(c3ccc(-c4cn[nH]c4)cc3)CC23CCN(C(C)=O)CC3)c1` [Example 76, 3-(4-(1H-pyrazol-4-yl)phenyl)-8-acetyl-1-(3-methoxybenzyl)-1,3,8-triazaspiro[4.5]decan-2-one] stands less than 3 nM; under `CC(=O)N1CCC2(CC1)CN(c1ccc(-c3cn[nH]c3)cc1)C(=O)N2Cc1cccc(F)c1F` [Example 77, 3-(4-(1H-pyrazol-4-yl)phenyl)-8-acetyl-1-(2,3-difluorobenzyl)-1,3,8-triazaspiro[4.5]decan-2-one], 30 to 250 nM. Regarding `CC(=O)N1CCC2(CC1)CN(c1ccc(-c3cn[nH]c3)cc1)C(=O)N2Cc1cc(F)ccc1F` [Example 78, 3-(4-(1H-pyrazol-4-yl)phenyl)-8-acetyl-1-(2,5-difluorobenzyl)-1,3,8-triazaspiro[4.5]decan-2-one], the IC50 lay in the range of 30 to 250 nM. In turn, `CC(=O)N1CCC2(CC1)CN(c1ccc(-c3cn[nH]c3)cc1)C(=O)N2CC1CCCCC1` [Example 79, 3-(4-(1H-pyrazol-4-yl)phenyl)-8-acetyl-1-(cyclohexylmethyl)-1,3,8-triazaspiro[4.5]decan-2-one] had an IC50 of 30 to 250 nM. Under `CC(=O)N1CCC2(CC1)CN(c1ccc(-c3cn[nH]c3)cc1)C(=O)N2Cc1ccc(F)cc1C` [Example 80, 3-(4-(1H-pyrazol-4-yl)phenyl)-8-acetyl-1-(4-fluoro-2-methylbenzyl)-1,3,8-triazaspiro[4.5]decan-2-one] stands 3 to 30 nM; under `CC(=O)N1CCC2(CC1)CN(c1ccc(-c3cn[nH]c3)cc1)C(=O)N2Cc1ccc(F)cc1F` [Example 81, 3-(4-(1H-pyrazol-4-yl)phenyl)-8-acetyl-1-(2,4-difluorobenzyl)-1,3,8-triazaspiro[4.5]decan-2-one], 30 to 250 nM.

Turning to `CC(=O)N1CCC2(CC1)CN(c1ccc(-c3cn[nH]c3)cc1)C(=O)N2Cc1cccc(F)c1C` [Example 82, 3-(4-(1H-pyrazol-4-yl)phenyl)-8-acetyl-1-(3-fluoro-2-methylbenzyl)-1,3,8-triazaspiro[4.5]decan-2-one], the IC50 fell in the range of 3 to 30 nM. The result for `CC(=O)N1CCC2(CC1)CN(c1ccc(-c3cn[nH]c3)cc1)C(=O)N2Cc1cc(F)ccc1C` [Example 83, 3-(4-(1H-pyrazol-4-yl)phenyl)-8-acetyl-1-(5-fluoro-2-methylbenzyl)-1,3,8-triazaspiro[4.5]decan-2-one] reads 3 to 30 nM; that for `COc1cccc(CN2C(=O)N(c3ccc(-c4cn[nH]c4)cn3)CC23CCN(C(C)=O)CC3)c1` [Example 84, 3-(5-(1H-pyrazol-4-yl)pyridin-2-yl)-8-acetyl-1-(3-methoxybenzyl)-1,3,8-triazaspiro[4.5]decan-2-one], less than 3 nM. The result for `COc1cccc(CN2C(=O)N(c3ccc(-c4cn[nH]c4)c(OC)n3)CC23CCN(C(C)=O)CC3)c1` [Example 85, 8-acetyl-3-(6-methoxy-5-(1H-pyrazol-4-yl)pyridin-2-yl)-1-(3-methoxybenzyl)-1,3,8-triazaspiro[4.5]decan-2-one] reads less than 3 nM; that for `COc1nc(N2CC3(CCN(C(C)=O)CC3)N(Cc3cccc(F)c3C)C2=O)ccc1-c1cn[nH]c1` [Example 86, 8-acetyl-1-(3-fluoro-2-methylbenzyl)-3-(6-methoxy-5-(1H-pyrazol-4-yl)pyridin-2-yl)-1,3,8-triazaspiro[4.5]decan-2-one], less than 3 nM. As for `CCc1nc(N2CC3(CCN(C(C)=O)CC3)N(Cc3cccc(F)c3C)C2=O)ccc1-c1cn[nH]c1` [Example 87, 8-acetyl-3-(6-ethyl-5-(1H-pyrazol-4-yl)pyridin-2-yl)-1-(3-fluoro-2-methylbenzyl)-1,3,8-triazaspiro[4.5]decan-2-one], the IC50 was less than 3 nM. For `CCc1nc(N2CC3(CCN(C(C)=O)CC3)N(Cc3cccc(OC)c3)C2=O)ccc1-c1cn[nH]c1` [Example 88, 8-acetyl-3-(6-ethyl-5-(1H-pyrazol-4-yl)pyridin-2-yl)-1-(3-methoxybenzyl)-1,3,8-triazaspiro[4.5]decan-2-one], the IC50 is less than 3 nM.

`CCc1nc(N2CC3(CCN(C(C)=O)CC3)N(Cc3cc(F)cc(OC)c3)C2=O)ccc1-c1cn[nH]c1` [Example 89, 8-acetyl-3-(6-ethyl-5-(1H-pyrazol-4-yl)pyridin-2-yl)-1-(3-fluoro-5-methoxybenzyl)-1,3,8-triazaspiro[4.5]decan-2-one] registered a concentration for half-maximal inhibition (IC50) of less than 3 nM. For the compound `COc1cccc(CN2C(=O)N(c3ncc(-c4cn[nH]c4)c(OC)n3)CC23CCN(C(C)=O)CC3)c1` [Example 90, 8-acetyl-3-(4-methoxy-5-(1H-pyrazol-4-yl)pyrimidin-2-yl)-1-(3-methoxybenzyl)-1,3,8-triazaspiro[4.5]decan-2-one], the IC50 was 3 to 30 nM. The result for `CNC(=O)N1CCC2(CC1)CN(c1ccc(-c3cn[nH]c3)cc1)C(=O)N2Cc1cccc(OC)c1` [Example 91, 3-(4-(1H-pyrazol-4-yl)phenyl)-1-(3-methoxybenzyl)-N-methyl-2-oxo-1,3,8-triazaspiro[4.5]decane-8-carboxamide] reads less than 3 nM. The result for `COc1cccc(CN2C(=O)N(c3ccc(-c4cn[nH]c4)cc3)CC23CCN(C(N)=O)CC3)c1` [Example 92, 3-(4-(1H-pyrazol-4-yl)phenyl)-1-(3-methoxybenzyl)-2-oxo-1,3,8-triazaspiro[4.5]decane-8-carboxamide] reads less than 3 nM; that for `COc1cccc(CN2C(=O)N(c3ccc(-c4cn[nH]c4)cc3)CC23CCN(C(=O)N(C)C)CC3)c1` [Example 93, 3-(4-(1H-pyrazol-4-yl)phenyl)-1-(3-methoxybenzyl)-N,N-dimethyl-2-oxo-1,3,8-triazaspiro[4.5]decane-8-carboxamide], less than 3 nM; that for `COC(=O)N1CCC2(CC1)CN(c1ccc(-c3cn[nH]c3)cc1)C(=O)N2Cc1cccc(OC)c1` [Example 94, Methyl 3-(4-(1H-pyrazol-4-yl)phenyl)-1-(3-methoxybenzyl)-2-oxo-1,3,8-triazaspiro[4.5]decane-8-carboxylate], less than 3 nM.

The compound `COc1cccc(CN2C(=O)N(c3ccc(-c4cn[nH]c4)cc3)CC23CCN(C(=O)OCC(C)C)CC3)c1` [Example 95, isobutyl 3-(4-(1H-pyrazol-4-yl)phenyl)-1-(3-methoxybenzyl)-2-oxo-1,3,8-triazaspiro[4.5]decane-8-carboxylate] yielded an IC50 of less than 3 nM. The result for `CCOC(=O)N1CCC2(CC1)CN(c1ccc(-c3cn[nH]c3)cc1)C(=O)N2Cc1cccc(OC)c1` [Example 96, ethyl 3-(4-(1H-pyrazol-4-yl)phenyl)-1-(3-methoxybenzyl)-2-oxo-1,3,8-triazaspiro[4.5]decane-8-carboxylate] reads less than 3 nM. Under `COc1cccc(CN2C(=O)N(c3ccc(-c4cn[nH]c4)cc3)CC23CCN(C(=O)OCC(C)(C)C)CC3)c1` [Example 97, neopentyl 3-(4-(1H-pyrazol-4-yl)phenyl)-1-(3-methoxybenzy1)-2-oxo-1,3,8-triazaspiro[4.5]decane-8-carboxylate] stands 3 to 30 nM; under `COCCOC(=O)N1CCC2(CC1)CN(c1ccc(-c3cn[nH]c3)cc1)C(=O)N2Cc1cccc(OC)c1` [Example 98, 2-methoxyethyl 3-(4-(1H-pyrazol-4-yl)phenyl)-1-(3-methoxybenzyl)-2-oxo-1,3,8-triazaspiro[4.5]decane-8-carboxylate], less than 3 nM.
